Data taken from publication PMC7821381, “Multi-Targeted Anticancer Activity of Imidazolate Phosphane Gold(I) Compounds by Inhibition of DHFR and TrxR in Breast Cancer Cells” (Frontiers in Chemistry, 2021).

How the values were obtained:
[1] = molecular target: T1, dihydrofolate reductase (DHFR) (Homo sapiens, UniProt P00374); assay: DHFR specific enzymatic activity in lysates of treated SKBR3 cells; format: cell-based; conditions: 6 μM (maximum inhibition)
T1 construct: Cell lysates were collected using Cell Culture Lysis Reagent; endogenous in cells; host or cells: MDA-MB231 and SKBR3 (human breast cancer cells)
T1 sequence (P00374 1-187): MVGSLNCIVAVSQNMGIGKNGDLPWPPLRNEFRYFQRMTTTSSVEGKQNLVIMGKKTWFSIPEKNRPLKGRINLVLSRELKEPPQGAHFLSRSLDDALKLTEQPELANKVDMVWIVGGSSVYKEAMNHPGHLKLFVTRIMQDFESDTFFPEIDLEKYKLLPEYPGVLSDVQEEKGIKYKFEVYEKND
Description: SKBR3, MDA-MB-231 and A17 cells were plated onto 100 mm cell culture dishes (2 × 10^6 cells/ dish). The day after, cells were treated with vehicle alone (DMSO) as control or increasing concentrations of compound 5 and compound 6 in DMEM supplemented with 2% FBS (Invitrogen, Carlsbad, CA) for 4 h or 12 h. Representative pictures of cells treated with compound 5 or 6 at the indicated concentration for 4 or 12 h just before to take cell lysates for the enzymatic tests are reported as supplemental files. Cell lysates were collected using Cell Culture Lysis Reagent (Promega, Madison, WI) supplemented with BSA (1%) and protease inhibitors. DHFR activity was assessed by spectrophotometric assay as reported elsewhere (Wang et al., [2020]) in which the reaction rate was followed by recording the decreasing absorbance at 340 nm due to oxidation of NADPH to NADP^+, using a Shimadzu UV-2450 spectrophotometer. When necessary, because of low protein content in the lysates, the DHFR enzymatic activity was measured by a discontinuous direct HPLC assay using an Agilent 1100 system. HPLC-DAD (Agilent 1100) was used to detect and quantify the presence of NADP^+, as one of the products of DHFR catalyzed reaction, in cell lysates. Fifty microliter of the cell lysate were incubated at 37°C in a reaction mixture containing 760 μl of buffer (0.05 M Hepes pH 7.3), 20 μl of NADPH 4 mM, and 20 μl of dihydrofolate (H2F) 4 mM. The samples for HPLC analysis were prepared as follows: 50 μl aliquots of each mixture were stopped at different times (0, 5, 10, 20, 30, and 60 min) by adding 25 μl of HClO4 1.2 M; after 10 min on ice and centrifugation for 5 min at 12,000 g, 60 μl of each supernatant were neutralized by adding 17.5 μl of K2CO3 0.79 M, kept on ice and centrifuged again. Fifty microliter of the supernatant obtained were directly injected into the reversed phase column for separations of reagents and products of the enzyme catalyzed reaction. The column used is a Supelcosil LC RP 18 (4.6 × 250 mm) with pre-column SupelGuard. The HPLC settings are the same reported in Wang et al. ([2020]). The amounts of product (NADP^+) were determined from the peak areas of the HPLC-separated compounds with reference to appropriate standards. One enzyme unit is defined as the amount of enzyme which catalyzes the reduction of 1 μmol of dihydrofolate, per minute, at 37°C. Enzyme activities were normalized by the protein content, determined by the Bradford assay (Bradford, [1976]).

[2] = tested on: thioredoxin reductase (TrxR); conditions: A17, 12 h treatment, 6 μM (maximum inhibition); control 4.95 ± 0.08
Description: The assay was performed as previously reported (Galassi et al., [2012]) in 0.2 M Na, K-phosphate buffer (pH 7.4) containing 2 mM EDTA. The assay contained 0.12 mM NADPH and different amounts of cell lysate. The reaction was initiated by the addition of 3 mM 5,5′-dithiobis (2-nitrobenzoic acid) (DTNB) and the increase of absorbance was monitored at 412 nm over 5 min at 25°C.
Fig. 3S. Effects of gold(I) compounds 5 and 6 on redox enzyme thioredoxine reductase in A17 cancer cells. Cells were incubated for 12 hours with different amount of tested compounds 5 and 6. After incubation, cells were washed twice with PBS and lysed. TrxR activity was tested by measuring NADPH-dependent reduction of DTNB (Galassi et al, 2012).

[3] = tested on: calf thymus DNA (ct-DNA); assay: UV-Vis absorption titration with ct-DNA; format: binding; conditions: as restated in the discussion
Description: Stock solutions of calf thymus DNA (ct-DNA) (Sigma–Aldrich) were prepared by dissolving the DNA powder overnight in 10 mM Tris–HCl pH 7.4, 10 mM NaCl and incubated under stirrer at 4°C for 12h. […] The concentration of the ct-DNA solution was determined by UV absorbance at 260 nm. The molar absorption coefficient at 260 nm, was taken as 6,600 M^−1 cm^−1 (Marmur, [1961]). Stock solutions of gold(I) complexes (compounds 5 and 6) were prepared in DMSO. Absorption titration experiments performed with fixed concentrations of the different gold(I) complexes (25 μM, in 10 mM Tris–HCl pH 7.4, 10 mM NaCl), gradually increasing the concentration of DNA. After addition of DNA to the compounds, the resulting solution was allowed to […] equilibrate at room temperature for 5 min. Then, the sample solution was scanned in the range 220–600 nm. For the different compounds the binding constant (Kb) was determined from the spectroscopic titration data using the following equation
[DNA]/(εa-εf)=[DNA]/(εb-εf)+1/Kb(εb-εf),Equation 1
where [DNA] is the concentration of DNA in base pairs, the apparent absorption coefficient (εa) was obtained by calculating Aobsd/[compound]. The terms εf and εb correspond to the extinction coefficient of free (unbound) and the fully bound compound, respectively. A plot of [DNA]/(εa-εf) vs. [DNA] will give a slope 1/(εb-εf) and an intercept 1/Kb(εb-εf). […]

[4] = tested on: DAPI-ct-DNA complex; assay: Minor groove displacement assay with DAPI (DAPI-ct-DNA); format: binding, calf; conditions: competitive DAPI displacement, fluorescence quenching, pH 7.4
Description: The changes in the emission spectra of DAPI complex with the DNA in 10 mM tris-HCl buffer at pH 7.4, 10 mM NaCl, were monitored upon addition of increasing concentrations of gold-compounds 5 and 6 at room temperature. Fluorescence quenching data were evaluated after excitation of DAPI-ct-DNA complex at 338 nm and recording the spectra from 400 to 600 nm. Values of Ksv constants were evaluated using Equation 3 and the quenching fluorescence values obtained were corrected according to Equation 2.

[5] = tested on: BLBC tumors; set-up: method as in Gambini et al., 2018; conditions: ref Gambini et al., 2018; cited from earlier work
[6] = SKBR3, 4 h treatment, control 0.72 ± 0.05
[7] = SKBR3, 12 h treatment, control 0.67 ± 0.10

Substance	Specific enzymatic activity of DHFR [1, 6] [mU/mg]	Specific enzymatic activity of DHFR [1, 7] [mU/mg]	Specific enzymatic activity of TrxR [2]	binding constant with ct-DNA [3] [mM⁻¹]	DAPI-ct-DNA Ksv [4]	activity against BLBC tumors transplanted in syngeneic mice compared with cisplatin [5]
4,5-dicyano-imidazolate-1yl-gold(I)-(triphenylphosphane) [Compound 5]	0.54 ± 0.04	0.29 ± 0.05	1.84 ± 0.06 (6 μM) mU/mg	1.46	6.12 ± 0.09 10^3 M^−1	much more active than cisplatin
4,5-dichloro-imidazolate-1yl-gold(I)-(triphenylphosphane) [Compound 6]	0.64 ± 0.06	0.34 ± 0.01	4.21 ± 0.09 (6 μM) mU/mg	3.44	4.98 ± 0.08 10^3 M^−1	much more active than cisplatin
